This is an account of results in patent US6346260B1, “Microbicidal active ingredients” (Ciba Specialty Chemicals Corporation, priority 1999, dated 2002).

Holding throughout (format): cell-based
Assay [1] deals with Pseudomonas aeruginosa CIP A-22. Put plainly: MIC in microtitre plates, Pseudomonas aeruginosa. The following applies: Pseudomonas aeruginosa, CIPA22; Table 1; CIP A-22; 48 hours at 37° C.; ≦20% growth; read-out: MIC Pseudomonas aeruginosa. How it is done: (§1) Determination of Antimicrobial Activity in Accordance with the Microtitre Plate Method Determination of the Minimum Inhibitory Concentration (MIC value) in Microtitre Plates casein-soybean flour-peptone bouillon for the preparation of the precultures of the test bacteria and yeast. Pseudomonas aeruginosa CIP A-22 The test substances are predissolved in dimethyl sulfoxide (DMSO) and tested in a dilution series of 1:2. Bacteria and yeast are cultured overnight in CASO bouillon, the mould on mycological slant agar and rinsed off with 10 ml of 0.85% sodium chloride solution (+0.1% TritonX-100). All test organisms are adjusted to an organism count of 1-5*10^6 CFU/ml with 0.85% sodium chloride solution. The test substances are prepipetted into microtitre plates in an amount of 8 μl per well. Previously diluted test organism suspensions are diluted 1:100 in CASO bouillon (bacteria and yeast) and Sabouraud 2% glucose bouillon (mould) and added to the test substances in an amount of 192 μl per well. The test batches are incubated for 48 hours at 37° C. (bacteria and yeast) or for 5 days at 28° C. (mould). After incubation, the growth is determined by reference to the turbidity of the test batches (optical density) at 620 nm in a microplate reader. The minimum inhibitory concentration (MIC value) is the concentration of substance at which (compared with the growth of the control) an appreciable inhibition of the growth (≦20% growth) of the test organisms is ascertained. One microtitre plate is used for each test organism and substance concentration. All substances are tested in duplicate.

For assay [2], the system named is Penicillium expansum ATCC 36200. Briefly: MIC in microtitre plates, Penicillium expansum. The following applies: ATCC36200, 120 h, Table 1, 5 days at 28° C., ≦20% growth. How it is done:
as §1, with “Mycological slant agar” for “casein-soybean flour-peptone bouillon”, “preculture” for “preparation”, “moulds. Penicillium expansum ATCC 36200” for “the precultures of the test bacteria and yeast. Pseudomonas aeruginosa CIP A-22”, “The minimum inhibitory concentration (MIC value) is the concentration of substance at which (compared with the growth of the control) an appreciable inhibition of the growth (≦20% growth) of the test organisms is ascertained. One microtitre plate is used for each test organism and substance concentration. All substances are tested in duplicate.” left out

The subject of assay [3] is Staphylococcus aureus ATCC 9144. Briefly: MIC in microtitre plates, Staphylococcus aureus. The following applies: ATCC9144, Table 1, 48 hours at 37° C., ≦20% growth. How it is done:
as §1, with “Staphylococcus aureus ATCC 9144” for “Pseudomonas aeruginosa CIP A-22”, “The minimum inhibitory concentration (MIC value) is the concentration of substance at which (compared with the growth of the control) an appreciable inhibition of the growth (≦20% growth) of the test organisms is ascertained. One microtitre plate is used for each test organism and substance concentration. All substances are tested in duplicate.” left out

The test system of assay [4] is Rhizopus stolonifer DSM 63011. Put plainly: MIC in microtitre plates, Rhizopus stolonifer. The following applies: DSM63011, 120 h, Table 1, 5 days at 28° C., ≦20% growth. How it is done: as §1, with “Mycological slant agar” for “casein-soybean flour-peptone bouillon”, “preculture” for “preparation”, “moulds. Rhizopus stolonifer DSM 63011” for “the precultures of the test bacteria and yeast. Pseudomonas aeruginosa CIP A-22”, “The minimum inhibitory concentration (MIC value) is the concentration of substance at which (compared with the growth of the control) an appreciable inhibition of the growth (≦20% growth) of the test organisms is ascertained. One microtitre plate is used for each test organism and substance concentration. All substances are tested in duplicate.” left out

Structures are written as SMILES.

Take `O=C(CC(=O)c1ccccc1O)c1ccco1` [Compound of formula (101)]: the MIC in assay [1] is over 1000 µg/mL; in assay [2], 100 µg/mL; in assay [3], 100 to 500 µg/mL; in assay [4] it was 50 µg/mL.

A word on the MIC: it is the lowest concentration found to suppress growth.
